# Data reported in patent US7087375B1, “Method for determining the mechanism of HIV RT inhibitors” (priority 2000, dated 2006).
# Values joined by “and” are separate entries in the source; they are usually repeats but may differ in a detail not shown here. Equal values may be shown once. Read-outs that look alike come from different tables or passages of the source.
# Assays:
# Type in all cases: biochemical
# [1] = target: T1, HIV-1 RT wild type (HXB2) (Human immunodeficiency virus type 1 group M subtype B, UniProt P04585)
# T1 construct: The final RT products, in a heterodimeric form (p66/p51); made in house; host or cells: E. coli XL1-Blue (vector pKK233-2)
# HIV-1 RT mutant 41/215 = HIV-1 RT mutant 41/215 (Human immunodeficiency virus type 1 group M subtype B, UniProt P04585, M628L/T802Y); test: RT inhibition assay (Lenti RT, polyrA/oligo(dT), BrdUTP); settings: 41/215 RT, AZT-TP assay
# [2] = target: T2, HIV-1 RT mutant 41/184/215 (Human immunodeficiency virus type 1 group M subtype B, UniProt P04585, M628L/M771V/T802Y); settings: 41/184/215 RT, AZT-TP assay, read-out: Km (BrdUTP)
# T2 construct: The final RT products, in a heterodimeric form (p66/p51); made in house; host or cells: E. coli XL1-Blue (vector pKK233-2)
# [3] = target: T3, HIV-1 RT mutant 41/67/70/215 (Human immunodeficiency virus type 1 group M subtype B, UniProt P04585, D654N/K657R/M628L/T802Y); settings: 41/67/70/215 RT
# T3 construct: The final RT products, in a heterodimeric form (p66/p51); made in house; host or cells: E. coli XL1-Blue (vector pKK233-2)
# [4] = target: T4, HIV-1 RT mutant 41/67/70/184/215 (Human immunodeficiency virus type 1 group M subtype B, UniProt P04585, D654N/K657R/M628L/M771V/T802Y); settings: 41/67/70/184/215 RT
# T4 construct: The final RT products, in a heterodimeric form (p66/p51); made in house; host or cells: E. coli XL1-Blue (vector pKK233-2)
# [5] = target: T5, HIV-1 RT mutant 41/67/70/184/210/211/214/215 (Human immunodeficiency virus type 1 group M subtype B, UniProt P04585, D654N/K657R/L797W/L801F/M628L/M771V/R798K/T802Y); settings: 41/67/70/184/210/211/214/215 RT
# T5 construct: The final RT products, in a heterodimeric form (p66/p51); made in house; host or cells: E. coli XL1-Blue (vector pKK233-2)
# HIV-1 RT mutant 69S-SS = target: T6, HIV-1 RT mutant 69S-SS (Human immunodeficiency virus type 1 group M subtype B, UniProt P04585, INS655SS/T656S); settings: 69S-SS RT, AZT-TP assay, read-out: Km (BrdUTP)
# T6 construct: The final RT products, in a heterodimeric form (p66/p51); made in house; host or cells: E. coli XL1-Blue (vector pKK233-2)
# [6] = target: T7, HIV-1 RT mutant 41/69S-SS/215 (Human immunodeficiency virus type 1 group M subtype B, UniProt P04585, INS655SS/M628L/T656S/T802Y); settings: 41/69S-SS/215 RT, AZT-TP assay, read-out: Km (BrdUTP)
# T7 construct: The final RT products, in a heterodimeric form (p66/p51); made in house; host or cells: E. coli XL1-Blue (vector pKK233-2)
# HIV-1 RT mutant 69S-SG = target: T8, HIV-1 RT mutant 69S-SG (Human immunodeficiency virus type 1 group M subtype B, UniProt P04585, INS655SS/T656G/T656S); settings: 69S-SG RT
# T8 construct: The final RT products, in a heterodimeric form (p66/p51); made in house; host or cells: E. coli XL1-Blue (vector pKK233-2)
# HIV-1 RT mutant 69S-AG = target: T9, HIV-1 RT mutant 69S-AG (Human immunodeficiency virus type 1 group M subtype B, UniProt P04585, INS655SA/T656G/T656S); settings: 69S-AG RT
# T9 construct: The final RT products, in a heterodimeric form (p66/p51); made in house; host or cells: E. coli XL1-Blue (vector pKK233-2)
# HIV-1 RT mutant V75T = target: T10, HIV-1 RT mutant V75T (Human immunodeficiency virus type 1 group M subtype B, UniProt P04585, V662T); settings: d4T-TP assay
# T10 construct: The final RT products, in a heterodimeric form (p66/p51); made in house
# HIV-1 RT mutant Q151M = target: T11, HIV-1 RT mutant Q151M (Human immunodeficiency virus type 1 group M subtype B, UniProt P04585, Q738M); settings: d4T-TP assay
# T11 construct: The final RT products, in a heterodimeric form (p66/p51); made in house
# [7] = AZT-TP assay, ATP 3.2 mM, read-out: Km (BrdUTP)
# [8] = d4T-TP assay, ATP 3.2 mM, read-out: Km
# [9] = d4T-TP assay, without ATP, read-out: Km
# [10] = AZT-TP assay, without ATP, read-out: Km (BrdUTP)
substance,measurement,setting,value
bromo-deoxyuridine-triphosphate [BrdUTP],Km,[1]; read-out: Km (BrdUTP),0.31 µM and 0.17 µM
same,Km,"[1]; wild type HXB2 RT, AZT-TP assay, ATP 3.2 mM + PPi 150 μM, read-out: Km (BrdUTP)",0.517 µM
same,Km,"[1]; wild type HXB2 RT, AZT-TP assay, ATP 6.0 mM, read-out: Km (BrdUTP)",0.81 µM
same,Km,"[1]; wild type HXB2 RT, AZT-TP assay, ATP […], read-out: Km (BrdUTP)",0.24 µM
same,Km,"[1]; wild type HXB2 RT, AZT-TP assay, GTP 0.5 mM, read-out: Km (BrdUTP)",0.324 µM
same,Km,"[1]; wild type HXB2 RT, AZT-TP assay, PPi 150 μM, read-out: Km (BrdUTP)",0.3 µM
same,Km,"[1]; wild type HXB2 RT, d4T-TP assay, ATP 3.2 mM, read-out: Km",0.162 µM
same,Km,"[1]; wild type HXB2 RT, d4T-TP assay, without ATP, read-out: Km",0.136 µM
same,Km,HIV-1 RT mutant 41/215; ATP 3.2 mM,0.36 µM
same,Km,HIV-1 RT mutant 41/215; without ATP,0.11 µM
same,Km,[2]; ATP 3.2 mM,0.14 µM
same,Km,[2]; without ATP,0.049 µM
same,Km,"[3]; AZT-TP assay, ATP 3.2 mM + PPi 150 μM, read-out: Km (BrdUTP)",0.202 µM
same,Km,[3]; [7],0.074 µM
same,Km,"[3]; AZT-TP assay, ATP 6.0 mM, read-out: Km (BrdUTP)",0.225 µM
same,Km,"[3]; AZT-TP assay, ATP […], read-out: Km (BrdUTP)",0.064 µM
same,Km,"[3]; AZT-TP assay, GTP 0.5 mM, read-out: Km (BrdUTP)",0.117 µM
same,Km,"[3]; AZT-TP assay, PPi 150 μM, read-out: Km (BrdUTP)",0.09 µM
same,Km,"[3]; AZT-TP assay, no extra additions (without ATP), read-out: Km (BrdUTP)",0.01 µM
same,Km,"[3]; AZT-TP assay, nontreated pyrophosphatase ATP 3.2 mM (control), single experiment, read-out: Km (BrdUTP)",0.044 µM
same,Km,"[3]; AZT-TP assay, pyrophosphatase treated ATP 3.2 mM, single experiment, read-out: Km (BrdUTP)",0.037 µM
same,Km,[3]; [8],0.126 µM
same,Km,[3]; [9],0.08 µM
same,Km,[4]; [7],0.38 µM
same,Km,[4]; [10],0.06 µM
same,Km,[4]; [8],0.152 µM
same,Km,[4]; [9],0.075 µM
same,Km,[5]; [7],0.58 µM
same,Km,[5]; [10],0.12 µM
same,Km,[5]; [8],0.249 µM
same,Km,[5]; [9],0.216 µM
same,Km,HIV-1 RT mutant 69S-SS; ATP 3.2 mM,0.22 µM
same,Km,HIV-1 RT mutant 69S-SS; without ATP,0.066 µM
same,Km,[6]; ATP 3.2 mM,0.21 µM
same,Km,[6]; without ATP,0.045 µM
same,Km,HIV-1 RT mutant 69S-SG; [7],0.36 µM
same,Km,HIV-1 RT mutant 69S-SG; [10],0.1 µM
same,Km,HIV-1 RT mutant 69S-SG; [8],0.228 µM
same,Km,HIV-1 RT mutant 69S-SG; [9],0.239 µM
same,Km,HIV-1 RT mutant 69S-AG; [7],0.28 µM
same,Km,HIV-1 RT mutant 69S-AG; [10],0.1 µM
same,Km,HIV-1 RT mutant 69S-AG; [8],0.126 µM
same,Km,HIV-1 RT mutant 69S-AG; [9],0.117 µM
same,Km,HIV-1 RT mutant V75T; ATP 3.2 mM,0.165 µM
same,Km,HIV-1 RT mutant V75T; without ATP,0.079 µM
same,Km,HIV-1 RT mutant Q151M; ATP 3.2 mM,0.174 µM
same,Km,HIV-1 RT mutant Q151M; without ATP,0.117 µM
